The numbers were not newly measured in patent US20100093849A1, “OXALIPLATIN PHARMACEUTICAL COMPOSITION WITH ALCOHOLIC SUGAR-BASED BUFFER” (priority 2007, published 2010), which cites them from elsewhere.

The conditions of series [1]: Merck Index.

Each structure is given as a SMILES string. Values joined by “and” are separate entries in the source; they are usually repeats but may differ in a detail not shown here. Equal entries are not always repeated.

Consider `O=C1[O][Pt]2([NH][C@@H]3CCCC[C@H]3[NH]2)[O]C1=O` [Oxaliplatinum, {trans-(1R,2R)-1,2-cyclohexane-diamine}-(oxalato)platinum(II) complex], for which the solubility in water entry (at 37° C.) is reported as “about 8 mg/ml”. Further, the “solubility in ether and ethanol” value (ether and ethanol) was “practically insoluble”. Besides, the “highest concentrations of oxaliplatinum achieved” value (solvent of the same volumes of 1,2-propanediol and water (WO0115691)) was 14.01 mg/mL and 14.33 mg/mL.

As to `O=C(O)C(=O)O` [Oxalic acid], the “second dissociation constant, pKa” value in series [1] is 4.28.
